Literature values as cited in paper PMC5911155 (Nature chemistry, 2018).

Tested on: Aβ42 monomers
Settings: ref [7], [42]

Substance: Aβ40: fibrils constructed from other proteins and peptides, including Aβ40
- ability of fibrils to catalyse nucleation of Aβ42 monomers: not able to efficiently catalyse nucleation of Aβ42 monomers
